# Experimental data as given in ChEMBL document CHEMBL1121451, “Neuroleptic activity in 5-aryltetrahydro-gamma-carbolines” (J Med Chem, 1980).
# How the values were obtained:
# Rattus norvegicus [1] = species on record: Rattus norvegicus; test: Inhibition of amphetamine induced stereotypy in rats; pretreated 1 hr before amphetamine.; type: functional
# Rattus norvegicus [2] = test: Tested for neuroleptic activity by measuring antagonism of d-amphetamine sulfate at intraperitoneal dosage of 5 mg/kg, after 5 hours in rat; type: functional; settings: ip
# Rattus norvegicus [3] = test: Tested for neuroleptic activity by measuring antagonism of d-amphetamine sulfate at intraperitoneal dosage of 5 mg/kg, after 1 hour in rat; Range is 1.0-3.2; type: functional; settings: ip
# Rattus norvegicus [4] = test: Tested for neuroleptic activity by measuring antagonism of d-amphetamine sulfate at intraperitoneal dosage of 5 mg/kg, after 24 hours in rat; type: functional; settings: ip
# Rattus norvegicus [5] = test: Tested for neuroleptic activity by measuring antagonism of d-amphetamine sulfate at intraperitoneal dosage of 5 mg/kg, after 5 hours in rat; Range is 1.0-3.2; type: functional; settings: ip
# Canis familiaris = test: The ability of compound to prevent the emesis induced by apomorphine (0.1 mg/kg, iv) in dogs at the specified dosage of 3.2 mg/kg (sesame oil); type: functional, Canis lupus familiaris
# Rattus norvegicus [6] = test: Tested for neuroleptic activity by measuring antagonism of d-amphetamine sulfate at intraperitoneal dosage of 5 mg/kg, after 1 hour in rat; Range is 3.2-10; type: functional; settings: ip
# Rattus norvegicus [7] = test: Tested for neuroleptic activity by measuring antagonism of d-amphetamine sulfate at intraperitoneal dosage of 5 mg/kg, after 1 hour in rat; Range is 10-32; type: functional; settings: ip
# Rattus norvegicus [8] = test: Tested for neuroleptic activity by measuring antagonism of d-amphetamine sulfate at intraperitoneal dosage of 5 mg/kg, after 5 hours in rat; Range is 3.2-10; type: functional; settings: ip
# Rattus norvegicus [9] = test: Tested for neuroleptic activity by measuring antagonism of d-amphetamine sulfate at intraperitoneal dosage of 5 mg/kg, after 5 hours in rat; Range is 10-32; type: functional; settings: ip
# Rattus norvegicus [10] = test: Tested for neuroleptic activity by measuring antagonism of d-amphetamine sulfate at intraperitoneal dosage of 5 mg/kg, after 1 hour in rat; Range is 32-56; type: functional; settings: ip
# Rattus norvegicus [11] = test: Tested for neuroleptic activity by measuring antagonism of d-amphetamine sulfate at intraperitoneal dosage of 5 mg/kg, after 1 hour in rat; Range is 0.32-1.0; type: functional; settings: ip
compound,measurement,setting,value
Cl.Cl.OC(CCCN1CCc2c(c3cc(F)ccc3n2-c2ccc(F)cc2)C1)c1cccnc1 (stereo not given),ED50,Rattus norvegicus [1],> 3.2 mg/kg
same,ED50,Rattus norvegicus [2],> 3.2 mg/kg
Cl.OC(CCCN1CCc2c(c3cc(F)ccc3n2-c2ccc(F)cc2)C1)c1ccc(Cl)cc1 (stereo not given),ED50,Rattus norvegicus [3],1 mg/kg
same,ED50,Rattus norvegicus [4],> 3.2 mg/kg
same,ED50,Rattus norvegicus [5],1 mg/kg
CC(=O)OC(CCCN1CCc2c(c3cc(F)ccc3n2-c2ccc(F)cc2)C1)c1ccc(F)cc1 (stereo not given),Protection,Canis familiaris,0 days
Cl.O=C(CCCN1CCc2c(c3cc(F)ccc3n2-c2ccc(C(F)(F)F)cc2)C1)c1ccc(F)cc1,ED50,Rattus norvegicus [1],> 32 mg/kg
OC(CCN1CCc2c(c3cc(F)ccc3n2-c2ccc(F)cc2)C1)c1ccc(F)cc1 (stereo not given),ED50,Rattus norvegicus [4],> 10 mg/kg
same,ED50,Rattus norvegicus [6],3.2 mg/kg
same,ED50,Rattus norvegicus [2],> 10 mg/kg
Cl.Fc1ccc(-n2c3c(c4cc(F)ccc42)CN(CCc2ccccc2)CC3)cc1,ED50,Rattus norvegicus [7],10 mg/kg
same,ED50,Rattus norvegicus [2],> 32 mg/kg
Cl.O=C(CCCN1CCc2c(c3cc(F)ccc3n2-c2ccc(F)cc2)C1)c1cccs1,ED50,Rattus norvegicus [7],10 mg/kg
same,ED50,Rattus norvegicus [2],> 32 mg/kg
O=C(CCCN1CCc2[nH]c3ccc(F)cc3c2C1)c1ccc(F)cc1,ED50,Rattus norvegicus [3],1 mg/kg
same,ED50,Rattus norvegicus [4],> 32 mg/kg
same,ED50,Rattus norvegicus [8],3.2 mg/kg
CN1CCc2c(c3cc(F)ccc3n2-c2ccccc2)C1.Cl,ED50,Rattus norvegicus [4],> 32 mg/kg
same,ED50,Rattus norvegicus [6],3.2 mg/kg
same,ED50,Rattus norvegicus [9],10 mg/kg
COc1ccc(-n2c3c(c4cc(F)ccc42)CN(CCCC(=O)c2ccc(F)cc2)CC3)cc1.Cl,ED50,Rattus norvegicus [7],10 mg/kg
same,ED50,Rattus norvegicus [2],> 32 mg/kg
CN1CCc2[nH]c3ccc(Cl)cc3c2C1,ED50,Rattus norvegicus [10],32 mg/kg
CN1CCc2c(c3cc(Cl)ccc3n2-c2ccccc2)C1.Cl,ED50,Rattus norvegicus [4],> 32 mg/kg
same,ED50,Rattus norvegicus [6],3.2 mg/kg
same,ED50,Rattus norvegicus [9],10 mg/kg
Cl.Fc1ccc(-n2c3c(c4cc(F)ccc42)CN(Cc2ccccc2)CC3)cc1,ED50,Rattus norvegicus [4],> 10 mg/kg
same,ED50,Rattus norvegicus [6],3.2 mg/kg
same,ED50,Rattus norvegicus [2],> 10 mg/kg
Cl.Fc1ccc(/C=C/CCN2CCc3c(c4cc(F)ccc4n3-c3ccc(F)cc3)C2)cc1,ED50,Rattus norvegicus [4],> 3.2 mg/kg
same,ED50,Rattus norvegicus [6],3.2 mg/kg
same,ED50,Rattus norvegicus [5],1 mg/kg
Cl.O=C(CCCN1CCc2c(c3cc(F)ccc3n2-c2ccc(F)cc2)C1)c1ccc(Cl)cc1,ED50,Rattus norvegicus [6],3.2 mg/kg
same,ED50,Rattus norvegicus [8],3.2 mg/kg
CN1CCc2c(c3cc(Cl)ccc3n2C)C1.Cl,ED50,Rattus norvegicus [10],32 mg/kg
CN1CCc2c(c3ccccc3n2-c2ccccc2)C1.Cl,ED50,Rattus norvegicus [4],> 32 mg/kg
same,ED50,Rattus norvegicus [7],10 mg/kg
Cl.O=C(CCCN1CCc2c(c3cc(F)ccc3n2-c2ccc(F)cc2)C1)c1cccc(F)c1,ED50,Rattus norvegicus [4],> 32 mg/kg
same,ED50,Rattus norvegicus [7],10 mg/kg
same,ED50,Rattus norvegicus [9],10 mg/kg
CN1CCc2c(c3cc(Cl)ccc3n2-c2ccc(F)cc2)C1.Cl,ED50,Rattus norvegicus [3],1 mg/kg
same,ED50,Rattus norvegicus [4],> 10 mg/kg
same,ED50,Rattus norvegicus [8],3.2 mg/kg
Cc1ccc(C(=O)CCCN2CCc3c(c4cc(F)ccc4n3-c3ccc(F)cc3)C2)cc1,ED50,Rattus norvegicus [1],> 10 mg/kg
same,ED50,Rattus norvegicus [2],> 10 mg/kg
CCCCCCCCCCCCCCCCCC(=O)OC(CCCN1CCc2c(c3cc(F)ccc3n2-c2ccc(F)cc2)C1)c1ccc(F)cc1 (stereo not given),Protection,Canis familiaris,0 days
COc1ccc(-n2c3c(c4cc(F)ccc42)CN(CCCC(O)c2ccc(F)cc2)CC3)cc1.Cl (stereo not given),ED50,Rattus norvegicus [4],> 3.2 mg/kg
same,ED50,Rattus norvegicus [1],1 mg/kg
same,ED50,Rattus norvegicus [2],3.2 mg/kg
Cl.OC(CCCN1CCc2c(c3cc(F)ccc3n2-c2ccc(F)cc2)C1)c1cccc(C(F)(F)F)c1 (stereo not given),ED50,Rattus norvegicus [1],> 10 mg/kg
same,ED50,Rattus norvegicus [2],> 10 mg/kg
Cn1c2c(c3cc(F)ccc31)CN(CCCC(O)c1ccc(F)cc1)CC2 (stereo not given),ED50,Rattus norvegicus [4],> 32 mg/kg
same,ED50,Rattus norvegicus [7],10 mg/kg
same,ED50,Rattus norvegicus [9],10 mg/kg
CCN1CCc2c(c3cc(F)ccc3n2-c2ccc(F)cc2)C1.Cl,ED50,Rattus norvegicus [4],> 10 mg/kg
same,ED50,Rattus norvegicus [6],3.2 mg/kg
same,ED50,Rattus norvegicus [2],> 10 mg/kg
Cl.OC(CCCN1CCc2c(c3cc(F)ccc3n2-c2ccccc2F)C1)c1ccc(F)cc1 (stereo not given),ED50,Rattus norvegicus [4],> 10 mg/kg
same,ED50,Rattus norvegicus [11],0.32 mg/kg
same,ED50,Rattus norvegicus [5],1 mg/kg
